These results are taken from paper PMC10279640 (Nature Communications, 2023).

Square brackets hold non-standard residues; d marks the D form. Peptide text beside a SMILES is read from it. sY = N[C@@H](Cc1ccc(OS(=O)(=O)O)cc1)C(=O)O

Assay [1] concerns P. knowlesi PvDBP^OR/PkDBPβγ^KO. The following applies: PvDBP-expressing P. knowlesi, at the concentrations tested.
Assay [2] deals with P. knowlesi wild-type A1-H.1.
For assay [3], the target named is PvDBP-RII (Plasmodium vivax, UniProt P22290, S353A/T257A/T422A). The assay is described as follows: biochemical. The format is binding.

In general, Kd refers to the concentration at which binding is half-saturated. Lower therefore signals higher affinity.

For “Ac-QLDFEDVWNSSYGVNDSFPDGDYDANLEL-NH2 [non-sulfated]”, the “growth inhibition (in words)” value in assay [1] is on record as “no growth inhibition observed”; in assay [2], “no inhibition observed”. Regarding `CC(=O)N[C@@H](CCC(N)=O)C(=O)N[C@@H](CC(C)C)C(=O)N[C@@H](CC(=O)O)C(=O)N[C@@H](Cc1ccccc1)C(=O)N[C@@H](CCC(=O)O)C(=O)N[C@@H](CC(=O)O)C(=O)N[C@H](C(=O)N[C@@H](Cc1c[nH]c2ccccc12)C(=O)N[C@@H](CC(N)=O)C(=O)N[C@@H](CO)C(=O)N[C@@H](CO)C(=O)N[C@@H](Cc1ccc(OS(=O)(=O)O)cc1)C(=O)NCC(=O)N[C@H](C(=O)N[C@@H](CC(N)=O)C(=O)N[C@@H](CC(=O)O)C(=O)N[C@@H](CO)C(=O)N[C@@H](Cc1ccccc1)C(=O)N1CCC[C@H]1C(=O)N[C@@H](CC(=O)O)C(=O)NCC(=O)N[C@@H](CC(=O)O)C(=O)N[C@@H](Cc1ccc(O)cc1)C(=O)N[C@@H](CC(=O)O)C(=O)N[C@@H](C)C(=O)N[C@@H](CC(N)=O)C(=O)N[C@@H](CC(C)C)C(=O)N[C@@H](CCC(=O)O)C(=O)N[C@@H](CC(C)C)C(N)=O)C(C)C)C(C)C` [Y30-S] (Ac-QLDFEDVWNSS[sY]GVNDSFPDGDYDANLEL-NH2), the dissociation constant (Kd) in assay [3] was found to be 552 nM.
